Read-outs that look alike come from different tables or passages of the source.

Assay [1] addresses T1, OsSRT1 (Oryza sativa, UniProt B8ARK7).
T1 construct: gene SRT1; OsSRT1 gene (483 aa) in pET30a (BamHI/EcoRI), His-tagged, E. coli BL21(DE3), HisTrap purified; tag removal not mentioned
T1 sequence (B8ARK7 1-483): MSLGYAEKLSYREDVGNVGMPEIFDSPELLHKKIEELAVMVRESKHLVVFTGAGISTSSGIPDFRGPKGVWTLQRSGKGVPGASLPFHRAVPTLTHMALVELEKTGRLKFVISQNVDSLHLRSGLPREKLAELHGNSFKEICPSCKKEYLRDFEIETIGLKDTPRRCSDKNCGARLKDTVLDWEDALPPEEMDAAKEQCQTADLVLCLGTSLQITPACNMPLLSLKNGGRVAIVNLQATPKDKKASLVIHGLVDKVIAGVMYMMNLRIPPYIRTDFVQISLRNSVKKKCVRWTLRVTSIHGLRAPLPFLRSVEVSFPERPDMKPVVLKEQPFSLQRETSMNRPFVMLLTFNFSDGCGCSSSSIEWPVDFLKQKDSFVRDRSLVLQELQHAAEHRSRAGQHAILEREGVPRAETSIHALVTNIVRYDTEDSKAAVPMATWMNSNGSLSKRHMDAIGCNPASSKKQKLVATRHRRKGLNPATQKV
Kind of assay: auto-ADP-ribosylation, anti-biotin western blot. It is filed as biochemical. In general terms: Immunoblotting shows a protein as a band on a membrane.

Assay [2] has as its target T1, OsSRT1. Kind of assay: auto-ADP-ribosylation, anti-biotin dot blot, Michaelis-Menten fit. Type of assay: biochemical. Particulars: 6 nM OsSRT1, 0-100 µM Bio-NAD+, pH 7.5, 25°C; auto-ADPr without H3; labelled compound.

Turning to `Nc1ncnc2c1ncn2[C@@H]1O[C@H](COP(=O)(O)OP(=O)(O)OC[C@H]2OC(O)[C@H](O)[C@@H]2O)[C@@H](O)[C@H]1O` (stereo partly shown) [ADP-ribose], the 50% inhibitory concentration (IC50) – broadly, the midpoint of a concentration-inhibition curve – at OsSRT1 [1] (auto-ADPr with Bio-NAD+, standard buffer 50 mM Tris pH 7.5, 150 mM NaCl, 10 mM DTT, 75 μM NAD+, 40 μM Bio-NAD+, 25°C, 1 h, product inhibition) is 18 ± 4 µM.

As to `NC(=O)c1cccnc1` [nicotinamide], the IC50 at OsSRT1 [1] came out at 26 ± 2 µM.

As to `O=C(O)c1cccnc1` [nicotinic acid], the half-inhibitory concentration (IC50) on OsSRT1 [1] was 32 ± 4 µM.

Take Bio-NAD^+: on OsSRT1 [2], the Km (as a rule, the substrate concentration at which the rate is half of its maximum) amounted to 37.4 ± 4 µM.

Source of the values: article doi:10.1101/2021.06.18.449075v2, “Understanding the mechanism of monoADP ribosylation in OsSRT1 and its linkage to DNA repair system under stress conditions” (biorxiv, 2021).
